Target: T1, 5HT2B receptors (Homo sapiens, UniProt P41595)
T1 construct: expressed in transfected cells; host or cells: CHO-K1 cells
Assay: Human 5-HT2B functional high throughput screening assay in CHO-K1 cells (calcium flux); call rule not given here
Format: cell-based
Method in brief: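 Agonism is measured as intracellular calcium increase in receptor-overexpressing CHO-K1 cells, read by FLIPR at 25 °C. Responses are expressed relative to serotonin, with EC50 and Emax derived from a 4-parameter logistic curve over 6 concentrations starting at 10 μM.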

T1 sequence (P41595 whole entry): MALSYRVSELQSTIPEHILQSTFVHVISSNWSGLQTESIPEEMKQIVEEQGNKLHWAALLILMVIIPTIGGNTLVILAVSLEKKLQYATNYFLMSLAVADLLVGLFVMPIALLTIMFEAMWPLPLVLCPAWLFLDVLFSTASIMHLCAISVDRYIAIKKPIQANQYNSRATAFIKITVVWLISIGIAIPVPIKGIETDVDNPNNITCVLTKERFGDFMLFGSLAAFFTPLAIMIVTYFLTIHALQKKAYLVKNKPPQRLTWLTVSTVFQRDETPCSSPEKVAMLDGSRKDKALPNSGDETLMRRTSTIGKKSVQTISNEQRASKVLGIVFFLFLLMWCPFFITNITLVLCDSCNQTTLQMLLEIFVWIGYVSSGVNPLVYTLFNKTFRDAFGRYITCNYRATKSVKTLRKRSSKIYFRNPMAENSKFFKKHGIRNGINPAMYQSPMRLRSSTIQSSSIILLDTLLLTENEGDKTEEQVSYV

EC50 (5-HT2B agonist activity, CHO-K1 cells, calcium flux, read-out: EC50): > 10 µM
Emax (5-HT2B, maximum functional response as percentage relative to the effect of serotonin): inactive
Compound: CN1C[C@@H]2CNC(=O)c3cc(-c4ccc(F)cc4)ccc3[C@H]2C1 [Example 115, (3aS,10bS)-8-(4-Fluorophenyl)-2-methyl-1,2,3,3a,4,5-hexahydrobenzo[e]pyrrolo[3,4-c]azepin-6(10bH)-one]

Source: patent US8846951B2 (AbbVie Inc., priority 2009, dated 2014)
